This is an account of results in patent US11440932B2, “Surfactant compounds-clips for extraction and stabilization in solution of membrane proteins” (CENTRE NATIONAL DE LA RECHERCHE SCIENTIFIQUE, priority 2017, dated 2022).

The target in this test is T1, BmrA (Bacillus subtilis, UniProt O06967).
T1 construct: His tag; made in house; host or cells: E. coli C41(DE3)
The experiment in a line: Size exclusion chromatography of BmrA after detergent exchange. As to the method:
The membrane fraction was extracted and purified in DDM by Ni-NTA metal affinity and Superdex 200 size exclusion, before being reloaded on Ni-NTA in order to exchange the DDM either with itself or with the compound 3.7c. Each pool was subsequently loaded onto a 3 ml Superdex S200 5/150 size exclusion column and eluted in the presence of 2 CMC of the same detergent, as indicated. The proteins are detected by absorbance at 280 nm.
The capacity of the compounds of the invention to maintain the membrane proteins in a native state was exemplified with the compound 3.7c of the invention, monitored by size exclusion chromatography and compared to the reference detergent DDM.
Procedure: BmrA was extracted in DDM and purified by Ni-NTA affinity chromatography as described in example 13, then loaded onto a Superdex 200 10/300 size exclusion column and eluted with 50 mM Hepes-HCl pH 8.0, 100 mM NaCl, 0.4 mM DDM (2×CMC). The fractions containing BmrA were pooled and separated into several aliquots (˜100 μg) kept at 4° C. One aliquot was subsequently reloaded onto an affinity column containing 1 ml of resin. The DDM was then exchanged against 10 volumes of Hepes-NaCl buffer containing either 2 CMC of DDM (control experiment) or 2 CMC of compound 3.7c (2 mM). BmrA was subsequently eluted in the respective buffers with 100 mM of imidazole added. The fractions containing the proteins were combined and concentrated on 50 kDa amicon (regenerated cellulose) to 50 μl, and were then deposited on a 3 ml Superdex 200 5/150 size exclusion column, equilibrated in 50 mM Hepes-HCl pH 8.0, 100 mM NaCl, and 2 CMC of DDM (0.4 mM) or 3.7c (2 mM). The elution was subsequently carried out at 0.3 ml/min in the respective buffers and the BmrA detected at 280 nm.
Background: SEC sorts molecules by how far they enter the pores of the column.

T1 sequence (O06967 whole entry): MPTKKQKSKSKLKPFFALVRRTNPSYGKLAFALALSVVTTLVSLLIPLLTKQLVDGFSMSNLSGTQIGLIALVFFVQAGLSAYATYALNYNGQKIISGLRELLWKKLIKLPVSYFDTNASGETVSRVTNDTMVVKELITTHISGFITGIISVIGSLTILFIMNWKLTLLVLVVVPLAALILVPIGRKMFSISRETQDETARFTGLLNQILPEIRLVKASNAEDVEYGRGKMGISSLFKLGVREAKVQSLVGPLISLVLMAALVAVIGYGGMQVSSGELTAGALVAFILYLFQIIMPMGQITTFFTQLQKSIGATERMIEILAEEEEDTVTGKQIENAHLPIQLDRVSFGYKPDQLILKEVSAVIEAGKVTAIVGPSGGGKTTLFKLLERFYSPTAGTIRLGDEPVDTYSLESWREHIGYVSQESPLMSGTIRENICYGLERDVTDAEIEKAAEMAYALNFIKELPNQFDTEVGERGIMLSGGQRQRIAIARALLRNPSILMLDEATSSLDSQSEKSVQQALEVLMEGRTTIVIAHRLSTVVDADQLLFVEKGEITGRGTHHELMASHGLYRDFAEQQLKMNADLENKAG

In the case of `CCCCCCCCCCCCCC(=O)N[C@@H](COCc1cn(CCO[C@@H]2OC(CO)[C@@H](O)C(O)C2O)nn1)C(=O)N[C@H](CCC(=O)O)C(=O)O` (some centres unmarked) [Compound 3.7c], the “elution volume of BmrA” value (Superdex 200 5/150, 2 CMC of detergent, 0.3 ml/min) is around 1.6 mL. Also, the “oligomerization state of BmrA” value (after exchange of DDM, 2 CMC (2 mM)) was “conserves the native oligomerization state”.
